The record followed here is patent US12605350B2, “Composition for preventing, ameliorating, or treating disease caused by nitration of tyrosine in proteins comprising tyrosine as effective component” (INDUSTRY-ACADEMIC COOPERATION FOUNDATION GYEONGSANG …, priority 2020, dated 2026).

Common to all, as to type: in vivo, mouse
Experiment [1] has as its system nitrotyrosine protein. Put plainly: nitrotyrosine protein in liver tissues (Western blot), azoxymethane model. The settings on record: L-tyrosine 100 mg/kg oral for 4 days, 16 hours after the administration of AOM. On the procedure:
(§1) C57BL/6 male mouse (13-week old, KOATECH, South Korea) was allowed to have free access to diets and water in sterile breeding room with constant temperature and humidity. The animals were divided into 3 test groups, i.e., (1) Control group (Control), (2) Carboxymethyl cellulose+azoxymethane treatment group (CMC+AOM), and (3) L-Tyrosine+AOM treatment group (L-Tyr+AOM). L-Tyrosine (100 mg/kg) was suspended in 0.5% CMC (carboxymethyl cellulose). The animal was orally administered, once a day for 4 days, with L-tyrosine or the prepared solvent CMC. Two hours after the oral administration on Day 4, intraperitoneal injection of AOM (100 mg/kg, […]) was carried out. To prevent dehydration, the animal was intraperitoneally injected with […] of physiological saline, 12 hours after the administration of AOM. Four hours after the injection, the test animal was sacrificed, blood was collected from the heart, and the liver tissues were harvested.
Liver tissues were homogenized with RIPA buffer solution. After centrifuge for 15 minutes at 16,000×g, 4° C., supernatant was collected and the protein quantification was carried out by BCA method. After SDS-PAGE electrophoresis, proteins were transferred to a PVDF membrane, and then blocked with 5% skim milk. […]
Background: In western blotting, separated proteins are transferred to a membrane and probed.

Experiment [2] relates to nitrotyrosine protein. Briefly: nitrotyrosine protein in kidney tissues (Western blot), renal ischemia and reperfusion. Conditions: L-tyrosine 100 mg/kg oral for 4 days, 24 hours after ischemia and reperfusion. As to the method:
(§2) C57BL/6 male mouse (23 to 25 g, KOATECH, South Korea) was allowed to have free access to diets and water in sterile breeding room with constant temperature and humidity. The animals were divided into 3 test groups, i.e., 1) Control group (Sham), 2) Renal ischemia having treatment with prepared solvent and induced reperfusion group (CMC+IR), and 3) Renal ischemia having treatment with L-tyrosine and induced reperfusion group (L-Tyr+IR).
(§3) L-Tyrosine (100 mg/kg) was suspended in 0.5% CMC (carboxymethyl cellulose). The animal was orally administered, once a day for 4 days, with L-tyrosine or the prepared solvent CMC. Thirty minutes after the oral administration on Day 4, renal ischemia was caused. Specifically, the animal abdomen was cut and renal pedicles at both sides were clamped using a Muller atraumatic vascular clamp to cause renal ischemia. After 25 minutes of blood ischemia, the clamp was removed followed by reperfusion. The control group (Sham) received the same operational procedures as above except the ischemia using clamp. Twenty-four hours after the reperfusion, the test animal was sacrificed, blood was collected from the heart, and the tissues were harvested.
Kidney tissues were homogenized with RIPA buffer solution. After centrifuge for 15 minutes at 16,000×g, 4° C., supernatant was collected and the protein quantification was carried out by BCA method. […]

The subject of experiment [3] is animal model of acute hepatic encephalopathy caused by AOM. Put plainly: ALT in plasma, hepatic encephalopathy caused by azoxymethane. Conditions: L-tyrosine 100 mg/kg oral once a day for 4 days, AOM 100 mg/kg i.p. As to the method: as §1, with “harvested. Blood collected in the above was centrifuged for 15 minutes at 3,000 rpm to separate plasma, and ALT (alanine aminotransferase) as an index of liver cell injury was measured by using ChemiLab GPT Assay Kit (IVD-LAB, Korea). According to the standard measurement method of the kit, absorbance was measured at a wavelength of 340 nm, and then expressed in unit of U/L.” for “harvested.”

Another experiment deals with IL-6. Put plainly: IL-6 gene expression in kidney tissues (quantitative real-time PCR), renal ischemia and reperfusion. The settings on record: L-tyrosine 100 mg/kg oral once a day for 4 days, 24 hours after ischemia and reperfusion. As to the method: as §2
as §3, with “Twenty-four hours after the reperfusion, the test animal was sacrificed, blood was collected from the heart, and the tissues were harvested.” left out
According to Trizol method, total RNA was extracted from kidney tissues, and cDNA was synthesized by using Revert Aid Reverse Transcription System (ThermoFisher). Quantitative PCR was carried out with CFX Connect Real-Time PCR system (Bio-Rad) by using iQ SYBR Green Super mix (Bio-Rad). […]
A general note: Real-time PCR tracks product formation cycle by cycle.

In experiment [4] the test system is chronic immobilization stress group (STR). Put plainly: corticosterone amount in plasma (ELISA), chronic immobilization stress. Conditions: tyrosine diet (181.2 mg/kg) compared to normal diet, p<0.05. As to the method: Each of the blood and PFC sample was obtained from a mouse anesthetized with CO2 gas. Specifically, mouse blood was collected between 9 AM and 11 AM and stored in a K3EDTA-coated vacuum container. Plasma was obtained by centrifuge for 10 minutes at 4° C., 500×g. PFC sample was weighed first, and, after lysis of the tissues by using Bullet homogenizer, subjected to centrifuge for 20 minutes at 4° C., 12,000 rpm. Thus-obtained plasma and tissue lysate were kept at −80° C. until use. After that, the animal was sacrificed, and a change in corticosterone amount in plasma was examined. ROS/RNS in plasma and PFC was also examined. The corticosterone amount was examined using an ELISA kit (Cayman) by following the manufacturer's protocol, and ROS/RNS was also examined using an ROS/RNS assay kit (Cell Biolabs, San Diego, CA, USA) by following the manufacturer's protocol. The animal models were divided into two groups (i.e., normal group and stress group). The animal of stress group was individually brought by force to a restrainer for 2 hours every day (i.e., between 2 PM and 4 PM) so that it was applied with chronic immobilization stress for 15 days. Change in bodyweight and food intake amount were measured every other day. The normal group and stress group were divided again into a normal diet group and a tyrosine-supplemented diet group (181.2 mg/kg), and then fed.
In general terms: An ELISA detects its analyte on a solid surface through an enzyme-linked reagent.

In the case of `N[C@@H](Cc1ccc(O)cc1)C(=O)O` [L-tyrosine], the “nitrotyrosine protein in liver tissues” value with nitrotyrosine protein [1] is “suppressed with statistical significance”. In addition, the “amount of nitrotyrosine protein in kidney tissues” value with nitrotyrosine protein [2] is reported as “significantly reduced”. Besides, the ALT in plasma result in experiment [3] is reported as “suppressed with statistical significance”. Also, in the experiment with IL-6, the “gene expression of IL-6 in kidney tissues” value is listed as “suppressed”.

Turning to `N[C@@H](Cc1ccc(O)cc1)C(=O)O` [tyrosine], the “corticosterone amount in plasma” value in experiment [4] was “statistically significant decrease in corticosterone amount”.
